Experimental findings from US10519152B2, “Compounds and their use in treating cancer” (AstraZeneca AB, priority 2017, dated 2019) are described below.

SMILES strings stand for the structures. Structures can show the parent of a compound that is named as a salt.

This assay has as its target T1, recombinant human Estrogen Receptor alpha ligand binding domain, residues 307-554 (ER alpha-LBD (GST)) (Homo sapiens, UniProt P03372).
T1 construct: made in house
T1 sequence (P03372 307-554): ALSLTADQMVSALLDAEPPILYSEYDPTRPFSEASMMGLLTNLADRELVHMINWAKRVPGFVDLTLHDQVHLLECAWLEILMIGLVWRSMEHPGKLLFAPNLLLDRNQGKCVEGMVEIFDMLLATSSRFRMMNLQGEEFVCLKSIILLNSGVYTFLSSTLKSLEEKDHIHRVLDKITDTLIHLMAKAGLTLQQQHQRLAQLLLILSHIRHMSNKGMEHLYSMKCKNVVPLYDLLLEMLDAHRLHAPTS
As to the kind of experiment: ERα binding assay (LanthaScreen TR-FRET competition). The note with it: TR-FRET competition with Fluormone ES2 tracer, 4 hours at room temperature; single experiment or average of two or more.

With `Cc1ncsc1-c1ccc(CNC(=O)[C@@H]2C[C@@H](O)CN2C(=O)[C@@H](NC(=O)COCCO[C@H](C)[C@@H](C)OCCOc2cc(F)c([C@@H]3c4[nH]c5ccccc5c4C[C@@H](C)N3CC(C)(C)F)c(F)c2)C(C)(C)C)cc1` [Example 80, (2S,4R)-1-((2S,10R,11R)-2-(tert-butyl)-14-(3,5-difluoro-4-((1R,3R)-2-(2-fluoro-2-methylpropyl)-3-methyl-2,3,4,9-tetrahydro-1H-pyrido[3,4-b]indol-1-yl)phenoxy)-10,11-dimethyl-4-oxo-6,9,12-trioxa-3-azatetradecanoyl)-4-hydroxy-N-(4-(4-methylthiazol-5-yl)benzyl)pyrrolidine-2-carboxamide], the IC50 stood at 0.7 nM.

In the case of `Cc1ncsc1-c1ccc(CNC(=O)[C@@H]2C[C@@H](O)CN2C(=O)[C@@H](NC(=O)COCCO[C@@H](C)[C@H](C)OCCOc2cc(F)c([C@@H]3c4[nH]c5ccccc5c4C[C@@H](C)N3CC(C)(C)F)c(F)c2)C(C)(C)C)cc1` [Example 82, (2S,4R)-1-((2S,10S,11S)-2-(tert-butyl)-14-(3,5-difluoro-4-((1R,3R)-2-(2-fluoro-2-methylpropyl)-3-methyl-2,3,4,9-tetrahydro-1H-pyrido[3,4-b]indol-1-yl)phenoxy)-10,11-dimethyl-4-oxo-6,9,12-trioxa-3-azatetradecanoyl)-4-hydroxy-N-(4-(4-methylthiazol-5-yl)benzyl)pyrrolidine-2-carboxamide], the IC50 is 0.9 nM.

For `Cc1ncsc1-c1ccc(CNC(=O)[C@@H]2C[C@@H](O)CN2C(=O)[C@@H](NC(=O)COCCOCCOCCCCNC(=O)c2cc(F)c([C@@H]3c4[nH]c5ccccc5c4C[C@@H](C)N3CC(C)(C)F)c(F)c2)C(C)(C)C)cc1` [Example 83, (2S,4R)-1-((S)-17-(tert-Butyl)-1-(3,5-difluoro-4-((1R,3R)-2-(2-fluoro-2-methylpropyl)-3-methyl-2,3,4,9-tetrahydro-1H-pyrido[3,4-b]indol-1-yl)phenyl)-1,15-dioxo-7,10,13-trioxa-2,16-diazaoctadecan-18-oyl)-4-hydroxy-N-(4-(4-methylthiazol-5-yl)benzyl)pyrrolidine-2-carboxamide], the IC50 was 1.1 nM.

In the case of `Cc1ncsc1-c1ccc(CNC(=O)[C@@H]2C[C@@H](O)CN2C(=O)[C@@H](NC(=O)COCCOCCOCCCNC(=O)c2cc(F)c([C@@H]3c4[nH]c5ccccc5c4C[C@@H](C)N3CC(C)(C)F)c(F)c2)C(C)(C)C)cc1` [Example 84, (2S,4R)-1-((S)-16-(tert-Butyl)-1-(3,5-difluoro-4-((1R,3R)-2-(2-fluoro-2-methylpropyl)-3-methyl-2,3,4,9-tetrahydro-1H-pyrido[3,4-b]indol-1-yl)phenyl)-1,14-dioxo-6,9,12-trioxa-2,15-diazaheptadecan-17-oyl)-4-hydroxy-N-(4-(4-methylthiazol-5-yl)benzyl)pyrrolidine-2-carboxamide], the IC50 was 1.3 nM.

In the case of `Cc1ncsc1-c1ccc(CNC(=O)[C@@H]2C[C@@H](O)CN2C(=O)[C@@H](NC(=O)COCc2ccc(COc3cc(F)c([C@@H]4c5[nH]c6ccccc6c5C[C@@H](C)N4CC(C)(C)F)c(F)c3)nc2)C(C)(C)C)cc1` [Example 85, (2S,4R)-1-((S)-2-(2-((6-((3,5-difluoro-4-((1R,3R)-2-(2-fluoro-2-methylpropyl)-3-methyl-2,3,4,9-tetrahydro-1H-pyrido[3,4-b]indol-1-yl)phenoxy)methyl)pyridin-3-yl)methoxy)acetamido)-3,3-dimethylbutanoyl)-4-hydroxy-N-(4-(4-methylthiazol-5-yl)benzyl)pyrrolidine-2-carboxamide], the IC50 was determined as 0.9 nM.

Take `Cc1ncsc1-c1ccc(CNC(=O)[C@@H]2C[C@@H](O)CN2C(=O)[C@@H](NC(=O)COCc2ccc(COc3cc(F)c([C@@H]4c5[nH]c6ccccc6c5C[C@@H](C)N4CC(C)(C)F)c(F)c3)cn2)C(C)(C)C)cc1` [Example 86, (2S,4R)-1-((S)-2-(2-((5-((3,5-Difluoro-4-((1R,3R)-2-(2-fluoro-2-methylpropyl)-3-methyl-2,3,4,9-tetrahydro-1H-pyrido[3,4-b]indol-1-yl)phenoxy)methyl)pyridin-2-yl)methoxy)acetamido)-3,3-dimethylbutanoyl)-4-hydroxy-N-(4-(4-methylthiazol-5-yl)benzyl)pyrrolidine-2-carboxamide]: the IC50 was determined as 0.7 nM.

`Cc1ncsc1-c1ccc(CNC(=O)[C@@H]2C[C@@H](O)CN2C(=O)[C@@H](NC(=O)COCCOCCOCCNC(=O)c2cc(F)c([C@@H]3c4[nH]c5ccccc5c4C[C@@H](C)N3CC(C)(C)F)c(F)c2)C(C)(C)C)cc1` [Example 91, (2S,4R)-1-((S)-15-(tert-Butyl)-1-(3,5-difluoro-4-((1R,3R)-2-(2-fluoro-2-methylpropyl)-3-methyl-2,3,4,9-tetrahydro-1H-pyrido[3,4-b]indol-1-yl)phenyl)-1,13-dioxo-5,8,11-trioxa-2,14-diazahexadecan-16-oyl)-4-hydroxy-N-(4-(4-methylthiazol-5-yl)benzyl)pyrrolidine-2-carboxamide]: the IC50 was 1.3 nM.

On to `Cc1ncsc1-c1ccc(CNC(=O)[C@@H]2C[C@@H](O)CN2C(=O)[C@@H](NC(=O)COCCCCOCCCOc2cc(F)c([C@@H]3c4[nH]c5ccccc5c4C[C@@H](C)N3CC(C)(C)F)c(F)c2)C(C)(C)C)cc1` [Example 93], for which the half-inhibitory concentration (IC50) amounted to 0.7 nM.

For `Cc1ncsc1-c1ccc(CNC(=O)[C@@H]2C[C@@H](O)CN2C(=O)[C@@H](NC(=O)COCCCOCCOc2cc(F)c([C@@H]3c4[nH]c5ccccc5c4C[C@@H](C)N3CC(F)(F)F)c(F)c2)C(C)(C)C)cc1` [Example 94, (2S,4R)-1-((S)-2-(2-(3-(2-(3,5-Difluoro-4-((1R,3R)-3-methyl-2-(2,2,2-trifluoroethyl)-2,3,4,9-tetrahydro-1H-pyrido[3,4-b]indol-1-yl)phenoxy)ethoxy)propoxy)acetamido)-3,3-dimethylbutanoyl)-4-hydroxy-N-(4-(4-methylthiazol-5-yl)benzyl)pyrrolidine-2-carboxamide], the IC50 turned out to be 0.9 nM.

`Cc1ncsc1-c1ccc(CNC(=O)[C@@H]2C[C@@H](O)CN2C(=O)[C@@H](NC(=O)COCCOCCOCCOc2cc(F)c([C@@H]3c4[nH]c5ccccc5c4C[C@@H](C)N3CC(F)(F)F)c(F)c2)C(C)(C)C)cc1` [Example 95, (2S,4R)-1-((S)-2-(tert-Butyl)-14-(3,5-difluoro-4-((1R,3R)-3-methyl-2-(2,2,2-trifluoroethyl)-2,3,4,9-tetrahydro-1H-pyrido[3,4-b]indol-1-yl)phenoxy)-4-oxo-6,9,12-trioxa-3-azatetradecanoyl)-4-hydroxy-N-(4-(4-methylthiazol-5-yl)benzyl)pyrrolidine-2-carboxamide]: the IC50 is 1.2 nM.

For `Cc1ncsc1-c1ccc(CNC(=O)[C@@H]2C[C@@H](O)CN2C(=O)[C@@H](NC(=O)COCCCCCOc2cc(F)c([C@@H]3c4[nH]c5ccccc5c4C[C@@H](C)N3CC(F)(F)F)c(F)c2)C(C)(C)C)cc1` [Example 96], the half-maximal inhibitory concentration (IC50) turned out to be 0.6 nM.

With `Cc1ncsc1-c1ccc(CNC(=O)[C@@H]2C[C@@H](O)CN2C(=O)[C@@H](NC(=O)COCCOCCCCCOc2cc(F)c([C@@H]3c4[nH]c5ccccc5c4C[C@@H](C)N3CC(C)(C)F)c(F)c2)C(C)(C)C)cc1` [Example 97, (2S,4R)-1-((S)-2-(2-(2-((5-(3,5-Difluoro-4-((1R,3R)-2-(2-fluoro-2-methylpropyl)-3-methyl-2,3,4,9-tetrahydro-1H-pyrido[3,4-b]indol-1-yl)phenoxy)pentyl)oxy)ethoxy)acetamido)-3,3-dimethylbutanoyl)-4-hydroxy-N-(4-(4-methylthiazol-5-yl)benzyl)pyrrolidine-2-carboxamide], the IC50 came to 0.5 nM.

In the case of `CC[C@H](C)[C@H](N)C(=O)O[C@@H]1C[C@@H](C(=O)NCc2ccc(-c3scnc3C)cc2)N(C(=O)[C@@H](NC(=O)COCCOCCOCCOc2cc(F)c([C@@H]3c4[nH]c5ccccc5c4C[C@@H](C)N3CC(C)(C)F)c(F)c2)C(C)(C)C)C1` [Example 99, (3R,5S)-1-((S)-2-(2-(2-(2-(2-(3,5-Difluoro-4-((1R,3R)-2-(2-fluoro-2-methylpropyl)-3-methyl-2,3,4,9-tetrahydro-1H-pyrido[3,4-b]indol-1-yl)phenoxy)ethoxy)ethoxy)ethoxy)acetamido)-3,3-dimethylbutanoyl)-5-((4-(4-methylthiazol-5-yl)benzyl)carbamoyl)pyrrolidin-3-yl L-isoleucinate Formate], the 50% inhibitory concentration (IC50) turned out to be 1.2 nM.

As to `Cc1ncsc1-c1ccc(CNC(=O)[C@@H]2C[C@@H](OC(=O)[C@H](C)NC(=O)[C@@H](N)C(C)C)CN2C(=O)[C@@H](NC(=O)COCCOCCOCCOc2cc(F)c([C@@H]3c4[nH]c5ccccc5c4C[C@@H](C)N3CC(C)(C)F)c(F)c2)C(C)(C)C)cc1` [Example 100, (3R,5S)-1-((S)-2-(2-(2-(2-(2-(3,5-Difluoro-4-((1R,3R)-2-(2-fluoro-2-methylpropyl)-3-methyl-2,3,4,9-tetrahydro-1H-pyrido[3,4-b]indol-1-yl)phenoxy)ethoxy)ethoxy)ethoxy)acetamido)-3,3-dimethylbutanoyl)-5-((4-(4-methylthiazol-5-yl)benzyl)carbamoyl)pyrrolidin-3-yl L-valyl-L-alaninate Formate], the IC50 stood at 0.8 nM.
